Reference: patent US7488834B2, “Organic semiconductors” (Alcatel-Lucent USA Inc., priority 2005, dated 2009)

Columns and labels:
[1] = Solubility in organic solvents; assay type: physicochemical
Description: Before fabricating the FETs, the solubility of the two semiconductor compositions in tetrahydrofuran (THF) was determined.

[2] = Solubility in organic solvents; assay type: physicochemical; remark: listed apart in the source
[3] = Viscosity of formulation or solution; assay type: physicochemical; conditions: c = 500 ppm, cyclohexanol/THFA/THF = 86:9:5

| Structure (SMILES) | solubility in THF ([1]; THF) | melting point | other results |
| --- | --- | --- | --- |
| CC(CO)COc1ccc(-c2ccc(-c3ccc(-c4ccc(OCC(C)CO)cc4)s3)s2)cc1 (stereo not shown) [3(3OH,2Me)-O-PTTP-O-3(3OH,2Me), 3-(4-{5′-[4-(3-Hydroxy-2-methyl-propoxy)-phenyl]-[2,2′]bithiophenyl-5-yl}-phenoxy)-2-methyl-propan-1-ol] | Low solubility in THF(600 ppm) | – | – |
| CC(COc1ccc(-c2ccc(-c3ccc(-c4ccc(OCC(C)COC5CCCCO5)cc4)s3)s2)cc1)COC1CCCCO1 (stereo not shown) [3(3THPO,2Me)-O-PTTP-O-3(THPO,2Me), 5,5′-Bis-[4-(2-methyl-propoxy-tetrahydro-pyran)-phenoxy]-[2,2′]bithiophenyl] | Well soluble in THF(about 75,000 ppm) | – | – |
| CCCOCCc1ccc(-c2ccc(-c3ccc(-c4ccc(CCOCCC)cc4)s3)s2)cc1 [3O2PTTP2O3, 5,5′-Bis(4-(propxyethyl)phenyl)-2,2′-bithiophene] | – | – | solubility (in words) ([1]; compared with 6PTTP6): Solubility like6PTTP6 |
| CCC(CC)COc1ccc(-c2ccc(-c3ccc(-c4ccc(OCC(CC)CC)cc4)s3)s2)cc1 [4(2Et)-O-PTTP-O-4(2Et), 5,5′-bis(4-(2-ethylbutyloxy)phenyl)-2,2′-bithiophene] | solubility in THF about4,900 ppm | – | – |
| CC(C)CCCOc1ccc(-c2ccc(-c3ccc(-c4ccc(OCCCC(C)C)cc4)s3)s2)cc1 [5(4Me)-O-PTTP-O-5(4Me), 5,5′-bis(4-(4-methylpentyloxy)phenyl)-2,2′-bithiophene] | solubility in THF about5400 ppm. DSC: mp =250° C., smaller transitionaround 173 °C (couldbe LC) | 250 °C | – |
| CCCCCC(CC)Oc1ccc(-c2ccc(-c3ccc(-c4ccc(OC(CC)CCCCC)cc4)s3)s2)cc1 (stereo not shown) [6(1Et)-O-PTTP-O-6(1Et), 5,5′-Bis-[4-(1-ethyl-hexyloxy)-phenyl]-[2,2′]bithiophenyl] | Well soluble in THF(about 330,000 ppm)DSC: mp = 97-102° C.,(broad transition) | 97 to 102 °C | – |
| CCCCCC(C)Oc1ccc(-c2ccc(-c3ccc(-c4ccc(OC(C)CCCCC)cc4)s3)s2)cc1 (stereo not shown) [6(1Me)-O-PTTP-O-6(1Me), 5,5′bis(4-(1-methylhexyloxy)phenyl)-2,2′-bithiophene] | – | 143 °C | solubility in THF relative to 7(2Me)-PTTP-7(2Me) ([1]; THF): approximately twice; solubility in 2-Ethylhexanol ([2]; 2-Ethylhexanol): ~800 ppm; solubility in THF/cyclohexanol 2:8 ([2]; THF/cyclohexanol 2:8 (viscosity 9 mPas)): 4,000 ppm; solubility in o-xylene [2]: 54,000 ppm |
| CCCCC(CC)COc1ccc(-c2ccc(-c3ccc(-c4ccc(OCC(CC)CCCC)cc4)s3)s2)cc1 (stereo not shown) [6(2Et)-O-PTTP-O-6(2Et), 5,5′-bis(4-(2-ethylhexyloxy)phenyl)-2,2′-bithiophene] | ~70,000 ppm | 148 °C | viscosity η of formulation [3]: 22 mPas; solubility in o-xylene [2]: ~25,000 ppm |
| CCCCC(C)COc1ccc(-c2ccc(-c3ccc(-c4ccc(OCC(C)CCCC)cc4)s3)s2)cc1 (stereo not shown) [6(2Me)-O-PTTP-O-6(2Me), 5,5′-bis(4-(2-methylhexyloxy)phenyl)-2,2′-bithiophene] | sufficiently soluble in THF(about 61,000 ppm)DSC: mp = 197 °C | 197 °C | – |
| CC(C)(C)[Si](OCCCCCCOc1ccc(-c2ccc(-c3ccc(-c4ccc(OCCCCCCO[Si](c5ccccc5)(c5ccccc5)C(C)(C)C)cc4)s3)s2)cc1)(c1ccccc1)c1ccccc1 [6(6TBDPSO)-O-PTTP-O-6(6TBDPSO), 5,5′-Bis-{4-[6-(tert-butyl-diphenyl-silanyloxy)-hexyloxy]-phenyl}-[2,2′]bithiophenyl] | Well soluble in THF(about 310,000 ppm); | – | – |
| CCCCCCOc1ccc(-c2ccc(-c3ccc(-c4ccc(OCCCCCC)cc4)s3)s2)cc1 [6-O-PTTP-O-6, 5,5′-bis(4-hexyloxyphenyl)-2,2′-bithiophene] | solubility in THF about600 ppm, lowest value byfar. Differential scanningcalorimetry (“DSC”);melting point = 243° C.,smaller transitions at 65,148, 176, 255, 261° C.(doastereomers or LC) | 243 °C | – |
| C=CC(C=C)OC(=O)CCCCCOc1ccc(-c2ccc(-c3ccc(-c4ccc(OCCCCCC(=O)OC(C=C)C=C)cc4)s3)s2)cc1 [6-[4-(5′-[5-(1-Vinyl-allyloxycarbonyl)-pentyloxy]-phenyl}-[2,2′]bithiophenyl-5-yl)-phenoxy]-hexanoic acid 1-vinyl-allyl ester] | well soluble in THF(131,000 ppm) | – | – |
| CC(C)CCCC(C)CCOc1ccc(-c2ccc(-c3ccc(-c4ccc(OCCC(C)CCCC(C)C)cc4)s3)s2)cc1 (stereo not shown) [8(3,7Me)-O-PTTP-O-8(3,7Me), 5,5′-bis(4-(3,7-dimethyloctyloxy)phenyl)-2,2′-bithiophene] | solubility in THF about12,000 ppmDCS: mp = 192° C., smallertransition at 143° C.(diastereomer or LC) | 192 °C | – |
